± gives the expanded uncertainty stated by the source.
Tests used:
[1] = Crystal; DTA
[2] = Molar enthalpy of transition or fusion; conditions: Crystal; DSC

Normal melting temperature [1]: 69.00 ± 0.5 °C | Molar enthalpy of transition or fusion [2]: 4.22 ± 0.1 kcal/mol
SMILES: COc1cnc(Cl)nc1Cl [2,4-dichloro-5-methoxypyrimidine]
